pEC50: −log10 of the molar value. In brackets after ≈: the same amount, converted by molar mass.
What was measured:
Hepatitis C virus [1] = assay: Antiviral activity against Hepatitis C virus 1b CON1 infected in human Huh/NeoET cells expressing luciferase assessed as reduction of virus induced cytopathic effect by luciferse reporter assay; type: functional, cell-based, Hepacivirus hominis; details: genotype 1b Con1, Huh/NeoET
[2] = Cytotoxicity against human Huh/NeoET cells assessed as cell viability by cytoTox1 cell proliferation assay; type: cell-based
[3] = Selectivity index, ratio of CC50 for luciferase expressing Huh/NeoET cells to EC50 for Hepatitis C virus 1b CON1; type: toxicity, cell-based; details: human, read-out: Ratio CC50/EC50
[4] = Antiviral activity against Influenza A virus (A/California/07/2009(H1N1) infected in MDCK cell line assessed as reduction of virus induced cytopathic effect by visual assay; type: functional, cell-based
[5] = Antiviral activity against Influenza A virus (A/California/07/2009(H1N1)) infected in MDCK cell line assessed as reduction of virus induced cytopathic effect by neutral red assay; type: functional, cell-based
[6] = Cytotoxicity against MDCK cells assessed as cell viability by visual assay; type: cell-based, Canis lupus familiaris; details: dog
[7] = Cytotoxicity against MDCK cells assessed as cell viability by neutral red assay; type: cell-based, Canis lupus familiaris; details: dog
[8] = Selectivity index, ratio of CC50 for MDCK cells by visual method to EC50 for Influenza A virus (A/California/07/2009(H1N1) virus by visual method; type: toxicity, cell-based; details: dog, read-out: Ratio CC50/EC50
[9] = Selectivity index, ratio of CC50 for MDCK cells by neutral red method to EC50 for Influenza A virus (A/California/07/2009(H1N1) virus by neutral red method; type: toxicity, cell-based; details: dog, read-out: Ratio CC50/EC50
Hepatitis C virus [10] = assay: Antiviral activity against HCV 1b/2a (Con-1/JFH-1) infected in human Huh7.5 cells assessed as reduction of virus induced cytopathic effect by luciferase reporter assay; type: functional, organism-based, Hepacivirus hominis; details: Huh-7
Hepatitis C virus [11] = assay: Antiviral activity against HCV 2a/2a (J6/JFH1) infected in human Huh7.5 cells assessed as reduction of virus induced cytopathic effect by luciferase reporter assay; type: functional, organism-based, Hepacivirus hominis; details: Huh-7
Hepatitis C virus [12] = assay: Antiviral activity against HCV 2a (JFH1) infected in human Huh7 cells assessed as reduction of virus induced cytopathic effect by luciferase reporter assay; type: functional, organism-based, Hepacivirus hominis; details: Huh-7
Hepatitis C virus [13] = assay: Antiviral activity against HCV 1a/2a (H77/JFH1) infected in human Huh7.5 cells assessed as reduction of virus induced cytopathic effect by luciferase reporter assay; type: functional, organism-based, Hepacivirus hominis; details: Huh-7
Hepatitis C virus [14] = assay: Antiviral activity against HCV 1b Con1 infected in human Huh7.5 cells assessed as reduction of virus induced cytopathic effect by qRT-PCR; type: functional, cell-based, Hepacivirus hominis; details: genotype 1b Con1, Huh-7
Hepatitis C virus [15] = assay: Antiviral activity against HCV 1a H77 infected in human Huh7.5 cells assessed as reduction of virus induced cytopathic effect by qRT-PCR; type: functional, cell-based, Hepacivirus hominis; details: genotype 1a H77, Huh-7
[16] = Cytotoxicity against human HuH7 cells assessed as cell viability by cytoTox1 cell proliferation assay; type: cell-based, Huh-7
[17] = Cytotoxicity against human Huh7.5 cells assessed as cell viability by cytoTox1 cell proliferation assay; type: cell-based, Huh-7.5
[18] = Selectivity index, ratio of CC50 for human HuH7.5 cells to EC50 for HCV 1b/2a (Con-1/JFH-1); parameters: species or system Huh-7
[19] = Selectivity index, ratio of CC50 for human HuH7.5 cells to EC50 for HCV 2a/2a (J6/JFH1); parameters: species or system Huh-7
[20] = Selectivity index, ratio of CC50 for human HuH7 cells to EC50 for HCV 2a (JFH1); parameters: species or system Huh-7
[21] = Selectivity index, ratio of CC50 for human HuH7 cells to EC50 for HCV 1a/2a (H77/JFH1); parameters: species or system Huh-7
[22] = Selectivity index, ratio of CC50 for human HuH7 cells to EC50 for Hepatitis C virus 1b CON1; type: toxicity, cell-based, Huh-7; details: read-out: Ratio CC50/EC50
[23] = Selectivity index, ratio of CC50 for human HuH7 cells to EC50 for Hepatitis C virus 1a H77; type: toxicity, cell-based, Huh-7; details: read-out: Ratio CC50/EC50

| SMILES | pEC50 (Hepatitis C virus [1]) | EC90 (Hepatitis C virus [1]) [µM] | CC50 [2] [µM] | selectivity ratio [3] | EC50 [4] [µg/mL] | EC50 [5] [µg/mL] | CC50 [6] [µg/mL] | CC50 [7] [µg/mL] | selectivity ratio [8] | selectivity ratio [9] | other results |
| --- | --- | --- | --- | --- | --- | --- | --- | --- | --- | --- | --- |
| COc1ccc(N2N=C(C(C)=O)S/C2=C2/S/C(=N/c3nc(-c4c(C)n(C)n(-c5ccccc5)c4=O)cs3)N(c3ccccc3)C2=O)cc1 | 5.55 | 15.5 | > 20 | > 7 |  |  |  |  |  |  |  |
| CCOC(=O)C1=C(C)N(c2ccccc2)/C(=C2\S/C(=N/c3nc(-c4c(C)n(C)n(-c5ccccc5)c4=O)cs3)N(c3ccccc3)C2=O)S1 |  |  |  |  | 68 (≈ 96.2 µM) | 92 (≈ 130 µM) | > 100 | > 100 | > 1.5 | > 1.1 |  |
| NC(=O)c1ncn([C@@H]2O[C@H](CO)[C@@H](O)[C@H]2O)n1 [RIBAVIRIN] |  |  |  |  | 24 (≈ 98.3 µM) | 16 (≈ 65.5 µM) | > 320 | > 320 | > 32 | > 2 |  |
| CC(=O)C1=NN(c2ccccc2)/C(=C2\S/C(=N/c3nc(-c4c(C)n(C)n(-c5ccccc5)c4=O)cs3)N(c3ccccc3)C2=O)S1 | 6.25 | 1.81 | > 20 | > 36 |  |  |  |  |  |  | pEC50 (Hepatitis C virus [10]): 5.96; EC90 (Hepatitis C virus [10]): > 20 µM; pEC50 (Hepatitis C virus [11]): 5.81; EC90 (Hepatitis C virus [11]): > 20 µM; pEC50 (Hepatitis C virus [12]): 4.75; EC90 (Hepatitis C virus [12]): > 20 µM; pEC50 (Hepatitis C virus [13]): 4.87; EC90 (Hepatitis C virus [13]): > 20 µM; pEC50 (Hepatitis C virus [14]): 6.34; EC90 (Hepatitis C virus [14]): > 20 µM; pEC50 (Hepatitis C virus [15]): < 4.70; EC90 (Hepatitis C virus [15]): > 20 µM; CC50 [16]: > 20 µM; CC50 [17]: > 20 µM; Ratio CC50/EC50 [18]: >18; Ratio CC50/EC50 [19]: >13; Ratio CC50/EC50 [20]: >1; Ratio CC50/EC50 [21]: >1; selectivity ratio [22]: > 43; selectivity ratio [23]: 1 |
| Cc1c(-c2csc(/N=C3/S/C(=C4/SCC(=O)N4c4ccccc4)C(=O)N3c3ccccc3)n2)c(=O)n(-c2ccccc2)n1C | 4.90 | > 20 | > 20 | > 2 | 23 (≈ 36.1 µM) | 23 (≈ 36.1 µM) | > 100 | > 100 | > 4.2 | > 4.3 |  |
| CC(=O)C1=NN(c2ccc(Cl)cc2)/C(=C2\S/C(=N/c3nc(-c4c(C)n(C)n(-c5ccccc5)c4=O)cs3)N(c3ccccc3)C2=O)S1 | 5.95 | 14.4 | > 20 | > 18 |  |  |  |  |  |  |  |
| CC(=O)C1=NN(c2ccc(C)cc2)/C(=C2\S/C(=N/c3nc(-c4c(C)n(C)n(-c5ccccc5)c4=O)cs3)N(c3ccccc3)C2=O)S1 | 5.98 | 4.76 | > 20 | > 19 |  |  |  |  |  |  |  |

Reference: ChEMBL document CHEMBL3616454, “Synthesis and antiviral activity of some new bis-1,3-thiazole derivatives” (Eur J Med Chem, 2015)
